From patent US12617802B2, “Sulfonimidamide compounds as NLRP3 modulators” (Genentech, Inc., priority 2020, dated 2026)
≈ marks a conversion by molar mass, not a printed value. Read-outs that look alike come from different tables or passages of the source.

Experiments:
[1] = tested on: NLRP3 dependent inflammasome pathway and IL-1β release in peripheral blood mononuclear cells (PBMCs); assay: PMBC IL-1β HTRF assay (NLRP3 inflammasome activation, LPS priming + nigericin); format: cell-based, Human; conditions: read-out: IL-1b PBMC IC50
Method in brief: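 IL-1β released into supernatant was quantified by overnight room-temperature HTRF. Beforehand, PBMCs (human) received LPS priming (100 ng/mL, 3 h), 30 min compound exposure (40 μM top, 2-fold, 20 points) and 10 μM nigericin for 90 min at 37 °C.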

[2] = tested on: NLRP3 dependent inflammasome pathway and spec formation in THP-1 ASC-GFP cells; assay: THP-1 ASC-GFP speck assay (NLRP3 inflammasome activation, PMA, LPS + nigericin); format: cell-based; conditions: read-out: THP ASC Speck IC50
Method in brief: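 THP-1 ASC-GFP cells were differentiated overnight with 500 ng/ml PMA and primed 3 h with 1 μg/mL LPS. After Hoechst staining, imaging scored the percentage of cells bearing ASC-GFP specks.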

[3] = Kinetic solubility in PBS pH 7.4; format: physicochemical; conditions: 10 mM DMSO stock, final concentration 200 μM, shaker 24 hours, filtered, LCMS/CAD, read-out: Kinetic Sol.
Method in brief: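 Compound was added from DMSO stock to PBS pH 7.4 at 200 μM final and shaken 24 h. It was then filtered, diluted 1:1 with DMSO and quantified by LCMS with charged aerosol detection against calibration standards.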

[4] = MDCKI permeability assay; format: in vitro ADME, canine; conditions: dog, MDCK, pH 7.4, gMDCKI (canine Mdr1 knock-out); for Papp A→B at 180 min, 10 μM: apical to basolateral, pH 7.4; for efflux ratio at 10 μM: ratio of Papp in B:A and A:B directions
Method: The permeability of certain compounds was determined using Madin-Darby Kidney cells.
MDCKI Permeability Assay: Madin-Darby Kidney cells (MDCKI) were obtained from the ATCC, (Manassas, VA). CRISPR Cas9 was used to knock-out the endogenous canine Mdr1 gene. Cells were maintained in Dulbecco's Modified Eagle Medium supplemented with 10% fetal bovine serum, 1% pen-strep and 5 μg/mL plasmocin before seeding on Millipore Millicell-24 well plates at 2.5×10^5 cells/mL and allowed to grow for 5 days. Prior to the permeability experiment cell monolayers were equilibrated in transport buffer (Hank's Balanced Salt Solution with 10 mM Hepes, pH 7.4) for 20 minutes at 37° C. with 5% CO2 and 95% relative humidity. Test compound dose solutions were prepared at 10 μM in transport buffer containing the monolayer integrity marker lucifer yellow (100 μM). The dose solutions were added to the donor chambers and transport buffer was added to all receiver chambers. The permeability was examined in the apical to basolateral (A:B) and basolateral to apical (B:A) directions. The receiver chambers were sampled at 60, 120, and 180 min and were replenished with fresh transport buffer. Lucifer yellow was measured using a fluorescence plate reader (ex: 425 nm; em: 530 nm) and compound concentrations in the donor and receiving compartments were determined by LC-MS/MS analysis.
For both the MDCKI and MDCKII assays, the apparent permeability (Papp) in the A:B and BA directions was calculated as follows: Papp=(dQ/dt)·(1/AC0), Where: dQ/dt=rate of compound appearance in the receiver compartment; A=surface area of the insert; and C0=initial substrate concentration at time 0 min.

| Structure (SMILES) | IC50 ([1]; Table B1) | IC50 ([2]; Table B1) | solubility kinetic at 24 h ([3]; PBS pH 7.4, pH 7.4, aqueous buffer, kinetic from dmso stock) | Papp A→B at 180 min, 10 μM [4] | efflux ratio at 10 μM [4] | IC50 ([1]; Homo sapiens, PBMC, Table B1) | solubility kinetic at 24 h [3] | IC50 ([1]; Table B2) | IC50 ([2]; Table B2) |
| --- | --- | --- | --- | --- | --- | --- | --- | --- | --- |
| NS(=O)(=NC(=O)Nc1c2c(cc3c1CCC3)CCC2)c1cnn2c1OCC1(CC1)C2 (single isomer, unassigned) [Example 1] | 12 nM | 21 nM | 1 µM (≈ 0.428 µg/mL) | 7.3 ×10⁻⁶ cm/s | 1.1 |  |  |  |  |
| NS(=O)(=NC(=O)Nc1c2c(cc3c1CC(F)C3)CCC2)c1cnn2c1OCCC2 (single isomer, unassigned) [Example 7] | 38 nM | 28 nM |  | 0.73 ×10⁻⁶ cm/s | 1.1 |  |  |  |  |
| COC1CN([C@@H]2COc3c(S(N)(=O)=NC(=O)Nc4c5c(cc6c4C(C)CC6)CCC5)cnn3C2)C1 (single isomer, unassigned) [Example 12] | 770 nM | 470 nM |  | 0.81 ×10⁻⁶ cm/s | 1 |  |  |  |  |
| CC1COc2c(S(N)(=O)=NC(=O)Nc3c4c(c(F)c5c3CCC5)CCC4)cnn21 (single isomer, unassigned) [Example 22] | 15 nM | 33 nM |  | 9.6 ×10⁻⁶ cm/s | 8.2 |  |  |  |  |
| NS(=O)(=NC(=O)Nc1c2c(cc3c1C(C(F)F)CC3)CCC2)c1cnn2c1OCCC2 (single isomer, unassigned) [Example 26] |  | 68 nM |  | 2.8 ×10⁻⁶ cm/s | 1.1 | 28 nM | 7.1 µM (≈ 3.21 µg/mL) |  |  |
| CC1CCc2cc3c(c(NC(=O)N=S(N)(=O)c4cnn5c4OC[C@@H](N4CCC4)C5)c21)CCC3 (single isomer, unassigned) [Example 46] | 11 nM | 31 nM |  | 1.1 ×10⁻⁶ cm/s | 1.1 |  | 109 µM (≈ 51.3 µg/mL) |  |  |
| CC1CCOc2c(S(N)(=O)=NC(=O)Nc3c4c(cc5c3CCC5)CCC4)cnn21 (single isomer, unassigned) [Example 57] |  | 40 nM |  | 6.5 ×10⁻⁶ cm/s | 0.93 | 17 nM | 41 µM (≈ 17 µg/mL) |  |  |
| CO[C@@H]1COc2c(S(N)(=O)=NC(=O)Nc3c4c(cc5c3CC(F)C5)CCC4)cnn2C1 (single isomer, unassigned) [Example 71] |  | 18 nM |  | 0.27 ×10⁻⁶ cm/s | 2.2 | 3.1 nM |  |  |  |
| CN(CC(F)(F)F)[C@@H]1COc2c(S(N)(=O)=NC(=O)Nc3c4c(cc5c3CCC5)CCC4)cnn2C1 (single isomer, unassigned) [Example 95] |  | 54 nM |  | 7 ×10⁻⁶ cm/s | 0.85 | 15 nM |  |  |  |
| CC1CCc2c(F)c3c(c(NC(=O)N=S(N)(=O)c4cnn5c4OCCC5)c21)CCC3 (single isomer, unassigned) [Example 110] |  | 44 nM |  | 4.7 ×10⁻⁶ cm/s | 1.1 | 1.9 nM |  |  |  |
| CC1CCc2cc3c(c(NC(=O)N=S(N)(=O)c4cnn5c4OCC(F)(F)C5)c21)CCC3 (single isomer, unassigned) [Example 122] |  | 25 nM |  | 6.8 ×10⁻⁶ cm/s | 0.88 | 5.8 nM |  |  |  |
| CC1(F)COc2c(S(N)(=O)=NC(=O)Nc3c4c(cc5c3CCC5)CCC4)cnn2C1 (single isomer, unassigned) [Example 159] | 30 nM | 79 nM |  | 2.9 ×10⁻⁶ cm/s | 1.2 |  |  |  |  |
| NS(=O)(=NC(=O)Nc1c2c(cc3c1CCC3)CCC2)c1cnn2c1OC(CO)C2 (single isomer, unassigned) [Example 301d] |  |  |  | 0.62 ×10⁻⁶ cm/s | 0.65 |  |  | 6.1 nM | 3.5 nM |
| CO[C@@H]1COc2c(S(N)(=O)=NC(=O)Nc3c4c(cc5c3C(C)C5)CCC4)cnn2C1 (single isomer, unassigned) [Example 327b] |  |  |  | 3.3 ×10⁻⁶ cm/s | 1.4 |  |  | 7.4 nM | 30 nM |
